Laboratory results reported in patent publication US11319307B2, “2,3-dihydrobenzohurans as bromodomain inhibitors” (GLAXOSMITHKLINE INTELLECTUAL PROPERTY (NO.2) LIMITED, priority 2017, dated 2022).

Tested on: BET family (BRD2, BRD3, BRD4 and BRDT) single and double mutant tandem domain proteins
Assay: Fluorescence Polarisation binding of Reference Compound X to mutant tandem BET proteins
Set-up: species or system Human
Method: The competition of the compounds of formula (I) with Reference Compound X for binding to the BET family (BRD2, BRD3, BRD4 and BRDT) was assessed using protein truncates spanning both bromodomain 1 (BD1) and bromodomain 2 (BD2). In order to monitor differential binding to either BD1 or BD2, single residue mutations of key tyrosines to alanine were made in the acetyl lysine binding pockets. To validate this approach, a double residue mutant tandem domain protein was produced for each of the BET family members. Utilising a Fluorescence Polarisation approach, binding affinities for each of the single and double mutants for Reference Compound X were determined. […] The affinities of the single mutated bromdomain tandem proteins for Reference Compound X were equi-potent with the corresponding non-mutated BET protein. […] In the TR-FRET competition assay, Reference Compound X is used at a concentration that is equivalent to the Kd for the non-mutated bromodomain, which ensures that no binding at the mutated bromodomain is detected. […]

With COc1ccc2c(c1)C(c1ccc(Cl)cc1)=N[C@@H](CC(=O)NCCCCCNC(=O)CCCCCC1(C)/C(=C/C=C/C=C/C3=[N+](CCCCS(=O)(=O)O)c4ccc(S(=O)(=O)O)cc4C3(C)C)N(CCCCS(=O)(=O)[O-])c3ccc(S(=O)(=O)O)cc31)c1nnc(C)n1-2 (some centres unmarked) [Reference Compound X] the “reduction in Kd (affinity for Reference Compound X)” value (double mutant tandem proteins versus non mutated, wild type tandem BET proteins) was > 1000 fold and the “reduction of the Kd of the interaction between the mutated bromodomain and Reference Compound X” value (single mutations of Tyrosine to Alanine) was > 1000 fold.
